Target: T1, Nuclear factor erythroid 2-related factor 2 (Homo sapiens, UniProt Q16236)
T1 sequence (Q16236 whole entry): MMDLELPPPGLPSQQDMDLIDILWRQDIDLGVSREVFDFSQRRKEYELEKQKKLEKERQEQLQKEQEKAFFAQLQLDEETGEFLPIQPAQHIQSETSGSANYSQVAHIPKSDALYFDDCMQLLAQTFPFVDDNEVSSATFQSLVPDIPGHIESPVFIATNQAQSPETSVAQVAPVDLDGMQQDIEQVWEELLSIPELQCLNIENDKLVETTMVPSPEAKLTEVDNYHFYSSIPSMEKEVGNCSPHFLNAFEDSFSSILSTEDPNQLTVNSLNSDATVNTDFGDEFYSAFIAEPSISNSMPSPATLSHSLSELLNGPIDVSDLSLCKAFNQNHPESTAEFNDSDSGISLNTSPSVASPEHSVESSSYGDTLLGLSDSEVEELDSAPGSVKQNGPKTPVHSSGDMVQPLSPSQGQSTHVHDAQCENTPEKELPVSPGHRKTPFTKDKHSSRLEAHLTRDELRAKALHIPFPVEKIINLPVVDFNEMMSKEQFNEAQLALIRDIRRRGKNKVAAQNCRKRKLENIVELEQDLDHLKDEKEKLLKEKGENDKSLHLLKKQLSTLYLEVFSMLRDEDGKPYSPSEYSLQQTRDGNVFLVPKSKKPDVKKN
Assay: Activation of ED-tagged Nrf2 in human U2OS cells co-expressing Keap1 assessed as induction of NRF2 translocation to nucleus after 6 hrs by beta-galactosidase based chemiluminescent assay
Format: cell-based

| EC50 [nM] | Compound |
| --- | --- |
| 698 | COc1ccccc1OS(=O)(=O)/C=C/c1cccc(Cl)c1 |
| 237 | COc1ccc(OS(=O)(=O)/C=C/c2ccccc2Cl)cc1 |

Reference: ChEMBL document CHEMBL4304782, “Antioxidant, Anti-inflammatory, and Neuroprotective Effects of Novel Vinyl Sulfonate Compounds as Nrf2 Activator” (ACS Med Chem Lett, 2019)
